Data reported in patent US9642874B2, “Compositions of selenoorganic compounds and methods of use thereof” (Alltech, Inc., priority 2014, dated 2017).

Legend:
Assay type in all cases: cell-based
[1] = system: primary mouse hepatocytes; assay: Toxicological study: LDH level in culture media of primary mouse hepatocytes; details: Compounds CDE (150, 300 ppb), insulin (10, 100 nM) or both; 24 hours serum-containing + 6 hours
Protocol: (§1) The overnight-acclimated hepatocytes were washed twice with PBS (to remove any residual FBS and other additives in the TRL hepatocyte maintenance medium, pretreated with control (water) or selenium Compounds CDE (150 or 300 ppb of each selenium compound) in DMEM/F12 media supplemented with 10% fetal bovine serum (FBS) for 24 hr. These cells were then washed twice with PBS and incubated with the same dose of selenium Compounds CDE (150 or 300 ppb) in the presence or absence of insulin (10 or 100 nM, Sigma), 0.1 mM 8-CPT (Sigma) or 0.5 μM Dex (Sigma) in serum-free and glucose-free DMEM media (Invitrogen) supplemented with 20 mM lactose (Sigma) and 2 mM pyruvate (Sigma) and 15 mM HEPES (Sigma) for another 6 hours. […]
Similar to the above glucose assay, cell culture media from the above described treatments were collected and centrifuged at 300×g for 5 minutes to remove any potential dislodged hepatocytes and subjected to LDH analysis using a […] (Abcam) according to the manufacturer protocol. In brief, the absorbance at OD450 nm in LDH standards and the culture medium samples after incubation with LDH substrates for every two minutes up to 40 minutes were determined by the Bio-Tek microplate reader. […]

AKT = assay: Western blot of phosphorylated Akt in primary mouse hepatocytes; details: 100 nM insulin 6 hours, or Compounds CDE both doses 24 hours + 6 hours
Protocol: as §1
(§2) After the above described treatments, primary mouse hepatocytes were rinsed with ice-cold PBS and lysed in the ice-cold RIPA buffer containing complete proteinase and phosphatase inhibitors (Thermo-Fisher Scientific, Waltham, Mass.) on ice for 30 min Cell lysates were collected using a cell scraper and transfer pipette and then centrifuged at 12000×g for 30 min at 4° C. to remove the DNA pellet and obtain the protein extract. Protein levels in the supernatant of these cell lysates were determined using the Pierce Micro-BCA protein assay kit (Thermo Scientific-Piece Biotechnology, Rockford, Ill.) according to the manufacturer's protocol. […]

PDK1 = assay: Western blot of pPdk1 in primary mouse hepatocytes; details: 100 nM insulin 6 hours, or Compounds CDE both doses 24 hours + 6 hours
Protocol: as §1, §2

[2] = system: primary mouse hepatocytes; assay: Glucose production in primary mouse hepatocytes (glucose in culture media); details: for 8-CPT/Dex-stimulated glucose production: serum-free; for 8-CPT/Dex-stimulated glucose production / decrease of glucose production: 6 hours
Protocol: The overnight-acclimated hepatocytes were washed twice with PBS (to remove any residual FBS and other additives in the TRL hepatocyte maintenance medium, pretreated with control (water) or selenium Compounds CDE (150 or 300 ppb of each selenium compound) in DMEM/F12 media supplemented with 10% fetal bovine serum (FBS) for 24 hr. These cells were then washed twice with PBS and incubated with the same dose of selenium Compounds CDE (150 or 300 ppb) in the presence or absence of insulin (10 or 100 nM, Sigma), 0.1 mM 8-CPT (Sigma) or 0.5 μM Dex (Sigma) in serum-free and glucose-free DMEM media (Invitrogen) supplemented with 20 mM lactose (Sigma) and 2 mM pyruvate (Sigma) and 15 mM HEPES (Sigma) for another 6 hours. After treatments, cell media were collected and subjected to glucose assay and toxicological studies of lactate dehydrogenase (LDH) and cells were collected for RNA and protein analysis.
For the studies of Compounds CDE on primary mouse hepatocytes under totally serum-free culture conditions, hepatocytes were acclimated in hepatocyte maintenance medium (TRL) for 8 hours, washed twice with PBS (to remove any residual FBS and other additives in the culture dish) and then starved in serum-free DMEM/F12 media overnight. Some of these serum-starved hepatocytes were treated with control (water), selenium compounds (150 or 300 ppb of each compound) in the presence or absence of insulin (10 or 100 nM), 0.1 mM 8-CPT (Sigma) or 0.5 μM Dex (Sigma) in serum-free and glucose/phenol red-free DMEM media supplemented with 20 mM lactose and 2 mM pyruvate and 15 mM HEPES for 6 hours. After 6 hours treatment, culture media were collected for glucose analysis and toxicological studies monitoring LDH activity and cultured cells were isolated for protein analysis. In addition, some serum-starved hepatocytes were treated with Compounds CDE (300 ppb of each compound) in plain DMEM/F12 media for 0, 5, 30, 60, 120 and 180 min and cells were collected for the time-course protein analysis of various signaling molecules.
Cell culture media from the above described treatments were collected and centrifuged at 300×g for 5 minutes to remove any potential dislodged hepatocytes and subjected to glucose analysis using a colormetric glucose assay kit (Abcam) according to the manufacturer protocol. The absorbance at OD570 nm in the samples and various concentrations of glucose standards were determined by the Bio-Tek microplate reader, and glucose concentration in the medium of each sample was obtained from the glucose standard curve, and then normalized by its protein level in attached cells which were determined using the Pierce Micro-BCA protein assay kit (Thermo Scientific-Piece Biotechnology, Rockford, Ill.) according to the manufacturer's protocol. Glucose levels in each treatment group were divided by the mean level in control group (without the treatments of Compounds CDE, insulin, 8-CPT and Dex) to obtain the relative glucose level. Data are presented as Mean±SEM of 3-4 samples.
Similar to the studies on AML-12 cells, primary mouse hepatocytes were pretreated with a control (water) or 150 ppb and 300 ppb doses of selenium Compounds CDE in serum-containing DMEM/F12 media for 24 hours. This treatment was followed by retreatments with these selenium compounds in the presence or absence of insulin (10 and 100 nM) or insulin alone for 6 hours. […]

## insulin: insulin (10 or 100 nM, Sigma) used as comparator and cotreatment
[1]
  LDH levels in the media: did not cause a significant increase of LDH levels
AKT
  pAktS473 protein level (in words): significant increase
PDK1
  pPdk1 protein level (in words): significant increase
[2]; 10 nM insulin
  8-CPT/Dex-stimulated glucose production: significantly inhibited glucose production
[2]; 100 nM insulin
  8-CPT/Dex-stimulated glucose production: only a trend of decreased glucose production
[2]; insulin 10 and 100 nM, vs 8-CPT/Dex group
  8-CPT/Dex-induced glucose production: significantly decreased 8-CPT/Dex-induced glucose production
[2]; insulin alone at 10 nM and 100 nM, vs water-treated control
  decrease of glucose production: 25-30%
[2]; insulin alone, both doses (10, 100 nM), serum-starved, serum-free media
  decrease of glucose production: 40-47%
